Source: ChEMBL document CHEMBL1201862, “PubChem BioAssay data set” (2004)
The source made the active and inactive calls.

Columns and labels:
Bcl-2-like protein 10 = target: T1, Bcl-2-like protein 10 (Homo sapiens, UniProt Q9HD36); assay: Bcl-B/TR3 peptide binding disruption – biochemical, fluorescence polarization, FITC-TR3 peptide, selectivity assay for Bfl-1 inhibitor project, primary screen (AID 748);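 note: fluorescence polarization from a fluorescein-labelled TR3 peptide binding purified Bcl-B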
T1 sequence (Q9HD36 whole entry): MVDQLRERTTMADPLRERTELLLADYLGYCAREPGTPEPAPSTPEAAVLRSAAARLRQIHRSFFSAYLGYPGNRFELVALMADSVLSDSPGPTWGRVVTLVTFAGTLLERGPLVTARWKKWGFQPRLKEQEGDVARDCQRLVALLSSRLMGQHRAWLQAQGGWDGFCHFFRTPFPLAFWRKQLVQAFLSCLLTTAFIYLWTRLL

Estrogen receptor = target: T2, Estrogen receptor (Homo sapiens, UniProt P03372);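 note: potency for inhibiting coactivator peptide recruitment to the receptor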
T2 sequence (P03372 whole entry): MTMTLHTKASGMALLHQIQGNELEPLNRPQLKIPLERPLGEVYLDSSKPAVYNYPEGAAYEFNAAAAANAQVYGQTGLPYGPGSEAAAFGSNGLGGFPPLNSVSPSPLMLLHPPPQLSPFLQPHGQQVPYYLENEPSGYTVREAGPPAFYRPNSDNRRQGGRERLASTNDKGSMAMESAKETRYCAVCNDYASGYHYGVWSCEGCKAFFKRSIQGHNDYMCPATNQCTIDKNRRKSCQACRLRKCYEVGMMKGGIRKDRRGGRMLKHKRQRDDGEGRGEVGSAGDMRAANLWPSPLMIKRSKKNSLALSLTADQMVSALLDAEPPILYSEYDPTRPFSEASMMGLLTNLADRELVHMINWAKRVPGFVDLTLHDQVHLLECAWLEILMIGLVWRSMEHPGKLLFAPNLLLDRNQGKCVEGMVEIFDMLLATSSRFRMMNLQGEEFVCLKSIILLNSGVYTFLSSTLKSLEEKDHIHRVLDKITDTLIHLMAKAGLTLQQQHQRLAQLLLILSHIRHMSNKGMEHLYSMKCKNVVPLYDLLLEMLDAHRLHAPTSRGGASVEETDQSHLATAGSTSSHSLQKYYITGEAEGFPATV

Genome polyprotein = Genome polyprotein (dengue virus type 2, UniProt P29990); assay: flavivirus cap methylation enzyme inhibition – biochemical, confirmation dose response, primary screen (AID 588689); type: functional
Estrogen receptor beta = Estrogen receptor beta (Homo sapiens, UniProt Q92731); assay: blockers of SRC-3 recruitment to ERβ – biochemical, ELISA, streptavidin-HRP readout, orthogonal assay, confirmation (AID 1060)
NS3 = NS3 (Hepatitis C virus, UniProt A3EZJ3); assay: PubChem AID 2173; set-up: species or system Hepacivirus hominis
[1] = target: Induced myeloid leukemia cell differentiation protein Mcl-1 (Homo sapiens, UniProt Q07820); type: functional
INS1 = assay: INS-1E survival protection against cytokine death – cell-based, luminescence, retest, dose response (AID 449756); type: functional; conditions: Rattus norvegicus;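 note: cell death triggered by IL-1 beta plus TNF-alpha plus IFN-gamma mixture; protective hits raise ATP signal compared with cytokine alone wells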
[2] = blockade of melanocortin 4 receptor signaling – cell-based, plate reader, cherry pick, counter-screen for LGR2 antagonist project, dose response (AID 743444); type: functional;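 note: transfected HEK 293 cells stimulated with alpha-MSH peptide; potency of inhibitors of the alpha-MSH evoked signal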
[3] = Vero E6 cell cytotoxicity, dose response, cytotoxicity control for non-replicating M. tuberculosis project, secondary assay (AID 492998); type: functional, VeroE6; conditions: Vero C1008
Paired box protein Pax-8 = Paired box protein Pax-8 (Homo sapiens, UniProt Q06710); assay: PAX8 transcriptional activity inhibition in RMG-I – RMG-I cells, luciferase, cherry-pick, dose response (AID 687027); type: functional, cell-based;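 note: luciferase reporter driven by Pax8 target thyroperoxidase promoter measured by SteadyGlo luminescence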
[4] = A549 cell cytotoxicity, dose response, cytotoxicity control, plate reader, cherry-pick, antagonist series (AID 743412); type: functional, cell-based
[5] = toxicity toward HepG2 liver cells – cell-based, plate reader, cherry-pick, antagonist series, cytotoxicity control, dose response (AID 743416); type: functional
[6] = blockers of bursicon-stimulated LGR2 cAMP reporter – cell-based, HEK293, CRE-luciferase reporter, cherry pick, set 2, dose response (AID 743343); type: functional;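 note: transfected cells were stimulated with diluted bursicon conditioned medium after compound addition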
[7] = HepG2 cell cytotoxicity, dose response, cytotoxicity control for non-replicating M. tuberculosis project (AID 489018); type: functional; conditions: Mycobacterium tuberculosis
[8] = THP-1 cell cytotoxicity, dose response, cytotoxicity control for non-replicating M. tuberculosis project (AID 489025); type: functional
[9] = viability loss in HEK293 cells – cell-based, plate reader, cherry-picked samples, cytotoxicity control, dose response (AID 743446); type: functional
cells = type: functional
[10] = system: Streptococcus sp. 'group A'; assay: Streptococcus pyogenes SK(-)GAS viability under kanamycin – luminescence, BacTiterGlo, confirmation, counter-screen for streptokinase expression inhibitor project, dose response (AID 1900); type: functional, organism-based
Streptococcus = assay: GAS UMAA2166 growth inhibition – luminescence, BacTiterGlo, counter-screen for streptokinase expression inhibitor project, dose response (AID 1915); type: functional, organism-based;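 note: potency for reduction of bacterial viability or growth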
[11] = Luminescence Cell-Based Dose Retest to Confirm Inhibitors of Cancer Stem Cells. [Related pubchem assays (depositor defined):AID2717, AID2721]; type: functional, Homo sapiens; conditions: Homo sapiens
X-box-binding protein 1 = target: T3, X-box-binding protein 1 (Homo sapiens, UniProt P17861); type: functional, Cricetulus griseus;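 note: confirmatory dose-response counter-screen serving a CHOP assay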
T3 sequence (P17861 whole entry): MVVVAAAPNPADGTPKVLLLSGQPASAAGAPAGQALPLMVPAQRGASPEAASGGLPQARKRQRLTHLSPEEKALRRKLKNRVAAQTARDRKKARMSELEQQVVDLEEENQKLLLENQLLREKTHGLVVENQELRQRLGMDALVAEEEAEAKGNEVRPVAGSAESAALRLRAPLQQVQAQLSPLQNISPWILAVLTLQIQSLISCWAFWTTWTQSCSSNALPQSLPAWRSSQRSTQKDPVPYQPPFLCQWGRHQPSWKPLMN

[12] = viability of PTEN-deleted HCT116 cells – cell-based, HCT116 PTEN knockout, dose response (AID 1047); type: functional;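 note: HCT116 colon tumor cells with PTEN knocked out; cells exposed to compound for 60 hours before readout; potency for loss of cell viability measured by luminescence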
[13] = viability of HCT116 lacking mutant beta-catenin – cell-based, human colon tumor, dose response (AID 1045); type: functional;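 note: HCT116 colon tumor cells with beta catenin knocked out; cells exposed to compound for 60 hours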
[14] = target: T4, Scavenger receptor class B member 1 (Mus musculus, UniProt Q61009); assay: mouse SR-BI DiI-HDL uptake blockers – ldlA[mSR-BI] cells, fluorescence, cherry pick, dose response (AID 493194); type: functional, cell-based;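 note: cellular uptake of fluorescent DiI-labeled HDL measured as cell fluorescence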
T4 sequence (Q61009 whole entry): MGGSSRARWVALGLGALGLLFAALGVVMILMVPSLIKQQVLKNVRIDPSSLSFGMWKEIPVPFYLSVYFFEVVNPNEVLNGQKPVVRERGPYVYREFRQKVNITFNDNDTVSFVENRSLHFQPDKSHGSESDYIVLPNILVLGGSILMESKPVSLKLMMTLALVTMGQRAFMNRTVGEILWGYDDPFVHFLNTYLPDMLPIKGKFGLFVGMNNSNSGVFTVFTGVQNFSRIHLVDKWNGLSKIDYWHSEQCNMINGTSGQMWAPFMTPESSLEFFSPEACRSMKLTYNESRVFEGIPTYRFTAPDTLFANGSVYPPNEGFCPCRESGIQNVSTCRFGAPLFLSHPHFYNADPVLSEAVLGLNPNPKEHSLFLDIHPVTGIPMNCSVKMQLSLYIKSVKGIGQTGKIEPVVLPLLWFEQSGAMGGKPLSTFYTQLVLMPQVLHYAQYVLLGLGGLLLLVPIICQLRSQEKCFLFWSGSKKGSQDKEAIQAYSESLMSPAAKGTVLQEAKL

Kallikrein-7 = Kallikrein-7 (Homo sapiens, UniProt P49862); assay: Fluorescence Intensity-based biochemical primary high throughput dose response assay to identify activators of kallikrein-7 (K7) zymogen.
Troponin, cardiac muscle = Troponin, cardiac muscle (Homo sapiens, UniProt P19429+P45379+P63316); assay: compounds desensitizing RTF to calcium – biochemical, fluorescence, cardiac regulated thin filaments, triplicate IC50, dose response (AID 504742); type: protein-complex assay
Prothrombin = Prothrombin (Bos taurus, UniProt P00735); assay: thrombin protease inhibitors – biochemical, fluorescence polarization, uHTS hits, dose response (AID 602369); type: functional
ORF 73 = target: T5, ORF 73 (Human herpesvirus 8, UniProt O40947); assay: KSHV LANA DNA-binding disruption – biochemical, fluorescence polarization, cherry-picked samples, dose response (AID 504725); set-up: species or system Human gammaherpesvirus 8;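 note: fluorescence polarization of a labeled DNA duplex reporting LANA DNA binding; potency is for inhibitors that block LANA binding to the DNA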
T5 sequence (O40947 whole entry): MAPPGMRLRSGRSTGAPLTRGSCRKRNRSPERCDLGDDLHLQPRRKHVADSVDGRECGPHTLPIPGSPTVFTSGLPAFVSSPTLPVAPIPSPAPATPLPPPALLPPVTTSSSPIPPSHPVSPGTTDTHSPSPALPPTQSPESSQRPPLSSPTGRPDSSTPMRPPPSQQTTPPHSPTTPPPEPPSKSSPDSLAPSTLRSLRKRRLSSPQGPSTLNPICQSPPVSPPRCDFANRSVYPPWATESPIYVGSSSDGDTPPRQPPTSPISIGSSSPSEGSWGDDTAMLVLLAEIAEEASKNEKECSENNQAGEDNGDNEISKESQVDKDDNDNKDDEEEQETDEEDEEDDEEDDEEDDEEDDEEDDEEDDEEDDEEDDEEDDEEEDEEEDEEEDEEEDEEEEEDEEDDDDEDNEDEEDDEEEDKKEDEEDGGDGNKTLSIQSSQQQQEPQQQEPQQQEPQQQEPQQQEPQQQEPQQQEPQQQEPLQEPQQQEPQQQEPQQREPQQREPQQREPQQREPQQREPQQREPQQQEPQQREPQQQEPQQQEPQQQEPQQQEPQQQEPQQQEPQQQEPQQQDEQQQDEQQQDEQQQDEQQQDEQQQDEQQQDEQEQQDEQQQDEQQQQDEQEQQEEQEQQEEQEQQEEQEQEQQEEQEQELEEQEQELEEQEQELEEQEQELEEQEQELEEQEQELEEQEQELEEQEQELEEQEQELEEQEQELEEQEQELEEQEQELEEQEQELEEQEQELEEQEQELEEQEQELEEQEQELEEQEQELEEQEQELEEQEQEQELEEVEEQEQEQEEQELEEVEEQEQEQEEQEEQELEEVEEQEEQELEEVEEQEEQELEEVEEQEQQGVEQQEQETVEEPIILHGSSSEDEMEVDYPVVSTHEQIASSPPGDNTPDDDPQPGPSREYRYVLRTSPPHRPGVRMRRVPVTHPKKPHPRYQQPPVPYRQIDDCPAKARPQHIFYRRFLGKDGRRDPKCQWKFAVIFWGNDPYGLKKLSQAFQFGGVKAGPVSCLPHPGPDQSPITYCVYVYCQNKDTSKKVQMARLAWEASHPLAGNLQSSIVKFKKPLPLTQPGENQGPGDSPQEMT

[15] = target: 26S proteasome non-ATPase regulatory subunit 14 (Homo sapiens, UniProt O00487); assay: inhibition of proteasome subunit RPN11 – biochemical, fluorescence polarization, uHTS hits, confirmation (AID 602368); type: functional
[16] = target: 72 kDa type IV collagenase (Homo sapiens, UniProt P08253); assay: Dose Response validation of uHTS RPN11 inhibitor hits using a MMP-2 Fluorescence assay.; type: functional
Large T antigen = Large T antigen (Simian virus 40, UniProt P03070); type: functional, Betapolyomavirus macacae;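 note: Confirmatory-stage PubChem screen for compounds that inhibit SV40 T antigen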
[17] = target: Intestinal-type alkaline phosphatase (Homo sapiens, UniProt P09923); assay: Dose Response confirmation of uHTS hits from a small molecule inhibitors of human intestinal alkaline phosphatase via a luminescent assay. [Related pubchem assays (depositor defined):AID2544, AID2574]; type: functional
[18] = target: Voltage-gated N-type calcium channel alpha-1B subunit/Amyloid beta A4 precursor protein-binding family A member 1 (Homo sapiens, UniProt Q00975+Q02410); assay: disruptors of Mint-PDZ/N-type channel peptide interaction – biochemical, HTRF, SAR follow-up (AID 2489); type: functional
Voltage-gated N-type calcium channel alpha-1B subunit/Amyloid beta A4 precursor protein-binding family A member 1, sequence (Q00975 whole entry): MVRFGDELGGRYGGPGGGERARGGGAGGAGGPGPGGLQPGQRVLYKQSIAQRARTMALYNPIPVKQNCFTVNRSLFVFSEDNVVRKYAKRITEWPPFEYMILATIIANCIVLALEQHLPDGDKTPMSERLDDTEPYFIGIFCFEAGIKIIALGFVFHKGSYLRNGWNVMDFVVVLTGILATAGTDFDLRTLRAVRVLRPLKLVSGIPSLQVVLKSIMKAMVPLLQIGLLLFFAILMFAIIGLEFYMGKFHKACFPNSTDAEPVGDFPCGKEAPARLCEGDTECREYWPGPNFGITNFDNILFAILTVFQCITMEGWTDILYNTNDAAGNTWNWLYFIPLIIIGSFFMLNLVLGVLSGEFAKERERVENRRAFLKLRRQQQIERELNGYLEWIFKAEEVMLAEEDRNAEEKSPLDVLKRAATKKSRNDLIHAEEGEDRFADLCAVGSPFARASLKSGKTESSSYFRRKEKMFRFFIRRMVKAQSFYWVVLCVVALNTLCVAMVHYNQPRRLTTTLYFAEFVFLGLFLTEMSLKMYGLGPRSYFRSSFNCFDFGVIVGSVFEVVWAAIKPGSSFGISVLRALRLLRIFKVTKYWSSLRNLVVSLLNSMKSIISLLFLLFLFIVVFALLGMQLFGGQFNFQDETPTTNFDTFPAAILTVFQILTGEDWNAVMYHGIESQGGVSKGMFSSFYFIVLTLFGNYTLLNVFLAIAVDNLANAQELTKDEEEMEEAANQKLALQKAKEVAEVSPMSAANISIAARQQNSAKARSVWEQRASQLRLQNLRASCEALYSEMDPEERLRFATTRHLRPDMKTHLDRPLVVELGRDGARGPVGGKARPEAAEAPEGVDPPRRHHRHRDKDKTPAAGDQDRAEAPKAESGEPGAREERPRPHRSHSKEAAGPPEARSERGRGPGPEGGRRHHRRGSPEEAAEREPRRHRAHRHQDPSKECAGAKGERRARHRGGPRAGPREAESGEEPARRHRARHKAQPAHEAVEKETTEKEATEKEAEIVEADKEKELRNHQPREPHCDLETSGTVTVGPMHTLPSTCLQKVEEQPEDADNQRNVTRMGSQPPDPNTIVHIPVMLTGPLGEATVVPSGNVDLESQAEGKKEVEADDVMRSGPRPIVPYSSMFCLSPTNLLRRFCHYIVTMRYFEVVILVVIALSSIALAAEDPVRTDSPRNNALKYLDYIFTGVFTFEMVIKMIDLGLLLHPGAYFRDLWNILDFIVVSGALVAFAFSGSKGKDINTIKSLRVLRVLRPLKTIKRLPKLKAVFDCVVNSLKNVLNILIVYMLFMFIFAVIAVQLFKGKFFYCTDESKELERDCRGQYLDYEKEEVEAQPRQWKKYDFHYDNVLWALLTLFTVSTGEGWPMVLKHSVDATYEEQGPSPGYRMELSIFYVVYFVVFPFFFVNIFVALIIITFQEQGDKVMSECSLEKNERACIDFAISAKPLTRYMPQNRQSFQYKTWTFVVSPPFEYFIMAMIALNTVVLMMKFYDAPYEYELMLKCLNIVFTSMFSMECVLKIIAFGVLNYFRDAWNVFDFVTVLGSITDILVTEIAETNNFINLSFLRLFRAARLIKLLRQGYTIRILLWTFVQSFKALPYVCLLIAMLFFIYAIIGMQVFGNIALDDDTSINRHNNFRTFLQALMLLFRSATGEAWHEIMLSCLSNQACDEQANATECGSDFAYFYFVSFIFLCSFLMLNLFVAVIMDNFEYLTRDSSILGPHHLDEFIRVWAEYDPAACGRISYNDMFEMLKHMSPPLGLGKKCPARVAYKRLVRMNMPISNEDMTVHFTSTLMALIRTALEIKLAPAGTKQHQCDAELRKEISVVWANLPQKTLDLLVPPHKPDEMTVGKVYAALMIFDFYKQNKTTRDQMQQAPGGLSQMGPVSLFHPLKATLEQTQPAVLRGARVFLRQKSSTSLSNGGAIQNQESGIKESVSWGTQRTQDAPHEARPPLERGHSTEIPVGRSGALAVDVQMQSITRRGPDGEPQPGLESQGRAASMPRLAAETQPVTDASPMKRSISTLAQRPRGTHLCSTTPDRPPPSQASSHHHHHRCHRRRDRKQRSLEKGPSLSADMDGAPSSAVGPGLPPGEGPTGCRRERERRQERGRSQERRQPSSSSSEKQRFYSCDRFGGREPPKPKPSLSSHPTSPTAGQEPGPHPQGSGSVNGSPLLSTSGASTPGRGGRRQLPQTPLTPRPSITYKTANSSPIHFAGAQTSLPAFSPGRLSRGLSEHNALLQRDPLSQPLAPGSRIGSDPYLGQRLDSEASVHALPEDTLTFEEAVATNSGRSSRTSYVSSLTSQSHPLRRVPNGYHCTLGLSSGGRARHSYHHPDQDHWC
Voltage-gated N-type calcium channel alpha-1B subunit/Amyloid beta A4 precursor protein-binding family A member 1, sequence (Q02410 whole entry): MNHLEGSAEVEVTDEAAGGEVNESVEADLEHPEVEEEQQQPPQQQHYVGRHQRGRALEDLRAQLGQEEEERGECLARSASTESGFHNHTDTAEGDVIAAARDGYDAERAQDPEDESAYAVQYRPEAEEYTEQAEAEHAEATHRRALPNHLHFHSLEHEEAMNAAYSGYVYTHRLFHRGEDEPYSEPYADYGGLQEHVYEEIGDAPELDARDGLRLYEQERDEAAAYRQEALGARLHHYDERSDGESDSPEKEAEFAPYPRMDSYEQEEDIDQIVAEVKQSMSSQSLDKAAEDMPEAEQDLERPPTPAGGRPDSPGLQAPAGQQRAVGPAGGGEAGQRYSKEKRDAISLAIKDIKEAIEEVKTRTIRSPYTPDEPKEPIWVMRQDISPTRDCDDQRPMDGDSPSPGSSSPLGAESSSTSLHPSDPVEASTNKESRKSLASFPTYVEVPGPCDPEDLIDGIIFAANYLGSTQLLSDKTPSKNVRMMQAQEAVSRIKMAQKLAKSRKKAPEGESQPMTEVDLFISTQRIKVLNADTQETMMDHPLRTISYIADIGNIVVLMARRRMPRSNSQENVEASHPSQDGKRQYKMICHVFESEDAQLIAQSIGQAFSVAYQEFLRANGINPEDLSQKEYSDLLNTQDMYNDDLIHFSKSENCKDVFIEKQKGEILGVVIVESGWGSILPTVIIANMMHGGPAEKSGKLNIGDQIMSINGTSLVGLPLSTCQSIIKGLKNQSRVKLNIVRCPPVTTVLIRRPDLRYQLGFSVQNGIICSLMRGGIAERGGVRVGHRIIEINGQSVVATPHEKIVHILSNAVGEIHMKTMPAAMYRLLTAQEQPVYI

Estrogen receptor beta, sequence (Q92731 whole entry): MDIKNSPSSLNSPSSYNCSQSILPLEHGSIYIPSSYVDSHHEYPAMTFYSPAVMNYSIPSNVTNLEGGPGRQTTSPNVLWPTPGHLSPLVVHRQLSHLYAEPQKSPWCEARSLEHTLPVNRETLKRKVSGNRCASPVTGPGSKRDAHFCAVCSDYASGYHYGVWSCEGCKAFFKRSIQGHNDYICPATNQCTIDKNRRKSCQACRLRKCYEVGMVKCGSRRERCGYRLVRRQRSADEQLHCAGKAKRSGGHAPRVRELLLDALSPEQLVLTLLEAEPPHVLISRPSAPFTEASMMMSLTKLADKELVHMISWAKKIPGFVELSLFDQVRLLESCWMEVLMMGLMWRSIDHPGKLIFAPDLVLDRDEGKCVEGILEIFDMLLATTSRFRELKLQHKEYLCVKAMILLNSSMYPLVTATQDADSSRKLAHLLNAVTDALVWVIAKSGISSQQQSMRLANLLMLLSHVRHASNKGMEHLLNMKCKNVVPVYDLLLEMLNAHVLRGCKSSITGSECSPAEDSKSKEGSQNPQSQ
Intestinal-type alkaline phosphatase, sequence (P09923 whole entry): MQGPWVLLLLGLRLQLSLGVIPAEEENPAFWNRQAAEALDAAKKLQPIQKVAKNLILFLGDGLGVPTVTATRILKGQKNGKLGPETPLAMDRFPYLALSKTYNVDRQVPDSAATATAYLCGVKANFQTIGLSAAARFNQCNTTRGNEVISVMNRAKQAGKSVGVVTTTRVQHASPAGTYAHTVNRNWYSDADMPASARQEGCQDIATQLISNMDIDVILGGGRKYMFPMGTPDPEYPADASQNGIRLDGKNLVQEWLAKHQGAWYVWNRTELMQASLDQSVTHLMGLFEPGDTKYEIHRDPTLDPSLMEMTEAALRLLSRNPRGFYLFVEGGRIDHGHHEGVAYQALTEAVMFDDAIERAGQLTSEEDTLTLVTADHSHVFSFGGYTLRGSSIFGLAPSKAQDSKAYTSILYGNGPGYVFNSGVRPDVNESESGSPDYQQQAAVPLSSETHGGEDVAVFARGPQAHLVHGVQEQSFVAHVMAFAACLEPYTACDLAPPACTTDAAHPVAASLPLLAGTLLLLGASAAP
Paired box protein Pax-8, sequence (Q06710 whole entry): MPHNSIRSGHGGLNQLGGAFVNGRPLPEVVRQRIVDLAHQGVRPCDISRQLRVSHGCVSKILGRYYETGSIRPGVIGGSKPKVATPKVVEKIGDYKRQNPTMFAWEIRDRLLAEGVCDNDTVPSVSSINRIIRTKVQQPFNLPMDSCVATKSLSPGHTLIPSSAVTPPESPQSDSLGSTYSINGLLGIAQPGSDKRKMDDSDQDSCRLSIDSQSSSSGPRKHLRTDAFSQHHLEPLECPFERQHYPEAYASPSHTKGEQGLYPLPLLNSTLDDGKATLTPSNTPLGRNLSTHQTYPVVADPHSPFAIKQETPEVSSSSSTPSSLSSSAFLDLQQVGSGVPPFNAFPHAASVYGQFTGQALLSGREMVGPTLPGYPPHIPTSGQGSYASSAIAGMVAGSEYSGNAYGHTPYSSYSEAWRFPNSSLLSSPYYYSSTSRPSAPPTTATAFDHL
Kallikrein-7, sequence (P49862 whole entry): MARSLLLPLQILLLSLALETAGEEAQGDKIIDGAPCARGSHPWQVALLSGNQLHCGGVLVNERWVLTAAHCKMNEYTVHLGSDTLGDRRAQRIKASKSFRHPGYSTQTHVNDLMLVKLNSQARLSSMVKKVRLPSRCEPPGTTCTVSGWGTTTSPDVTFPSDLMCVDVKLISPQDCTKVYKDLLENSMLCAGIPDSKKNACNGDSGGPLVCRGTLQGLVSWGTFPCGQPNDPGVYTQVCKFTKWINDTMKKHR

## Cc1ccccc1NC(=O)CSc1nnc(-c2ccco2)c(-c2ccco2)n1
Bcl-2-like protein 10
  IC50: 27.3 µM (active)
Estrogen receptor
  IC50: 14.9 µM (active)
Genome polyprotein
  IC50: 64.7 µM (active)
Estrogen receptor beta
  IC50: 1.98 µM (not active)
NS3
  IC50: 8.62 µM (active)

## O=C(Nc1cccc(Cl)c1)Nc1nnc(-c2ccncc2)s1
[1]
  IC50: 3.12 µM (active)
INS1
  AC50: 4.54 µM (active)
[2]
  AC50: 6.08 µM (active)
[3]
  CC50: > 20 µM (active)
Paired box protein Pax-8
  AC50: 2.97 µM (active)
[4]
  AC50: 17.3 µM (active)
[5]
  AC50: 8.34 µM (active)
[6]
  AC50: 3.28 µM (active)
[7]
  CC50: 9.96 µM (active)
[8]
  CC50: 6.34 µM (active)
[9]
  AC50: 15.5 µM (active)
cells
  IC50: > 50 µM (active)

## CCNC(=O)c1c(NC(=O)c2cc(-c3cc(C)ccc3O)[nH]n2)sc2c1CCCC2
[10]
  EC50: 2.5 µM (active)
Streptococcus
  EC50: 7.09 µM (active)
[11]
  AC50: 5.2 µM (active)
X-box-binding protein 1
  Absolute IC50 (XBP1): 10 µM
[12]
  EC50: 11.3 µM (active)
[13]
  EC50: 15 µM (active)

## Cc1cc(N2CCC(C)CC2)nc(NCc2ccccc2)n1
INS1
  AC50: 5.93 µM (active)
[3]
  CC50: > 20 µM (active)
[7]
  CC50: > 20 µM (active)
[8]
  CC50: 13.4 µM (active)
cells
  IC50: 45.4 µM (active)

## O=C(Oc1ccc(O)cc1)C12CC3CC(CC(C3)C1)C2
X-box-binding protein 1
  Absolute IC50 (XBP1): 10 µM

## CCC(=O)N1CCc2cc(-c3csc(NC(=O)c4ccco4)n3)ccc21
[14]
  AC50: 0.109 µM (active)
Kallikrein-7
  EC50: 10.5 µM (inactive)

## C/C(N)=C(/C#N)C(=O)CSc1nc2ccccc2[nH]1
Bcl-2-like protein 10
  IC50: 22.3 µM (active)

## CCN1CCN(c2ccc(NC(=O)c3cccc4ncccc34)cc2)CC1
Bcl-2-like protein 10
  IC50: 50.1 µM (inactive)
Estrogen receptor beta
  IC50: 0.121 µM (not active)

## O=C(O)C(Cc1ccccc1)N1C(=O)/C(=C/C=C/c2ccco2)SC1=S (configuration not stated)
Troponin, cardiac muscle
  IC50: > 71.5 µM (inactive)
Prothrombin
  IC50: 75.3 µM (active)
ORF 73
  AC50: 108 µM (active)
[15]
  IC50: 7.33 µM (active)
[16]
  IC50: 0.947 µM (active)
Large T antigen
  IC50: 33.5 µM (active)

## C/C(=N\NC(=O)c1ccccc1OCc1ccc(F)cc1)c1ccccn1
INS1
  AC50: 1.83 µM (active)
[3]
  CC50: 2.69 µM (active)
[7]
  CC50: 3.6 µM (active)
[8]
  CC50: 0.765 µM (active)
cells
  IC50: 3.02 µM (active)

## O=C(NC1CCCCCC1)c1ccc(-n2cnnc2)cc1
[17]
  IC50: > 100 µM (inactive)

## CC(/C=C/c1ccco1)=NNC(=O)c1cc(C)[nH]n1
[18]
  IC50: > 56.8 µM (inactive)
